From US11802108B2, “Compounds for the modulation of cyclophilins function” (The University Court of The University of Edinburgh, priority 2018, dated 2023)
Where a name gives a salt, the structure may show the parent alone.

What was measured:
CypA [1] = target: T1, CypA (Homo sapiens (Human), UniProt P62937); assay: Isothermal titration calorimetry (ITC) binding to CypA; details: 25° C.
Protocol: All ITC experiments for the ester series compounds were carried out at 25° C. on a MicroCal Auto iTC200 (GE Healthcare) instrument. The buffer used in the titrations of the compounds belonging to the ester series was 50 mM phosphate buffer, pH 6.5 and the concentration of DMSO was 2% v/v for all the compounds, unless otherwise stated in Table 51. Final compound solutions were heated to 65° C. and/or sonicated prior to the experiment. Each experiment consisted of an initial injection of 0.4 μL followed by nineteen 2 μL injections and in most of cases for these compounds, the “continue injections” protocol was used leaving the cell intact and performing a second series of titrations using the above protocol to achieve saturation. Control experiments were performed, where each compound was titrated into buffer and when small amount of heat was detected due to heat of dilution, it was subtracted when processing the data using a linear fit method. In all cases the first injection was omitted from the data processing. All data were analysed using the MicroCal PEAQ-ITC Analysis software.
The buffer used for these titrations was: PBS, 0.05% v/v P20 surfactant, 50 μM EDTA in presence of 2% v/v EtOH and the pH was set to 7.4.

CypA [2] = target: T1, CypA; assay: X-ray co-crystal structure with CypA; for CypA X-ray co-crystal: key: Y: observed in cocrystal; N: not observed in cocrystal; type: binding; details: for CypA X-ray co-crystal: apo CypA crystals soaked with 5 mM ligand; for binding mode in co-crystal structure of CypA: FIG. 1
Protocol: Purified and his-tag-cleaved CypA was buffer-exchanged into PBS and concentrated to ˜29 mg ml^−1. For crystallisation 1 μL of protein was mixed with an equal volume of the well solution, consisting of 100 mM Tris-HCl pH8.0 and 20-22% v/v PEG 8000, and crystal formation came about after equilibration overnight in 6° C. by vapour diffusion using the hanging drop method over 1 mL of the same well solution. Apo CypA crystals were soaked overnight into different ligand solution consisting of 100 mM Tris-HCl pH 8.0, 35% w/v PEG 8000, 5% v/v Glycerol, 5% v/v DMSO and 5 mM ligand, before flash frozen into liquid nitrogen. X-ray data were collected at the Diamond synchrotron-radiation facility in Oxford-shire, England at 100K. Structures were solved by molecular replacement using DIMPLE from the CCP4i suite. Modelled structures were visualised and manually adjusted as needed using Coot10 and further refined using REFMAC5 from CCP4i.
FIG. 1A summarises the mode of binding of certain prior-art urea small molecule Cyp inhibitors.

CypB = CypB (Homo sapiens (Human), UniProt P23284); assay: Surface plasmon resonance (SPR) binding to His-CypB; details: 25° C., triplicate
Protocol: (§1) Single cycle kinetic titration binding experiments were performed using SPR in triplicate at 25° C. […] The sensor surface was regenerated between experiments by dissociating any formed complex in running buffer for at least 1,200 seconds.
(§2) Kinetic titration binding experiments were performed in triplicate at 25° C. […] The sensor surface was regenerated between experiments by dissociating any formed complex in running buffer for at least a further 600 seconds.

CypD = CypD (Homo sapiens (Human), UniProt P30405); assay: Surface plasmon resonance (SPR) binding to His-CypD; details: 25° C., triplicate
Protocol: (§3) SPR measurements were performed on a BIAcore T200 instrument (GE Healthcare). Ni^2+-nitrilotriacetic acid (NTA) sensor chips, 1-ethyl-3-(3-[…]) carbodiimide hydrochloride (EDC) and Nhydroxysuccinimide (NHS) were purchased from GE Healthcare.
(§4) Pure His-cyclophilins were immobilized and covalently stabilized on the NTA sensor chip according to the protocol described in Thermo-kinetic analysis space expansion for cyclophilin-ligand interactions—identification of a new nonpeptide inhibitor using Biacore T200.
as §1, §2

CypA [3] = target: T1, CypA; assay: Surface plasmon resonance (SPR) binding to His-CypA; details: 25° C., triplicate
Protocol: as §3, §4, §1, §2

[4] = tested on: MDA-MB-231 cells in presence of NK92 cells; assay: NK92 immune cell killing of MDA-MB-231 cancer cells; type: cell-based; details: with NK92 cells
Protocol: (§5) The latter medium with 2000 U/mL IL-2 was used for NK92 cell killing assays.
(§6) NK92 cells were then added at a density of 1000 cells per well and 10 μM test compound was added. Cells were imaged with a 10× objective every 3 hours for 120 hours using an IncuCyte ZOOM microscope from Essen Bioscience.
(§7) Apoptotic fraction of the population (number of nuclei with co-localized red and green fluorescence divided by total number of red nuclei in the population) and fold increase in number of red nuclei were determined at various time points.

MDA-MB-231 cells [5] = assay: Growth inhibition (GI50) of MDA-MB-231 cells, IncuCyte imaging; type: cell-based; details: MDA-MB-231, 120 hours imaging
Protocol: as §5
(§8) To determine the direct effect of the compounds on cell proliferation, cells were seeded at a density of 500 cells per well in cell culture medium in 384-well cell culture plates and allowed to adhere overnight (about 16 hours), incubated in a humidified atmosphere with 5% CO2. Subsequently, cell culture medium was refreshed, supplemented with Draq 7 (3 μM final concentration) and test compound at the indicated concentrations with three wells being treated for each condition tested. Cells were then returned to the cell culture incubator and imaged with a 10× objective every 3 hours for 120 hours using an IncuCyte ZOOM microscope from Essen Bioscience.
(§9) Using the IncuCyte ZOOM software, custom image analysis procedures were developed and applied for each cell line to determine cell confluency, cell number and number of dead cells over the time course of the experiment.
(§10) Statistical analyses in cell viability assays to compare the effect of compound treatment to treatment with vehicle were performed using GraphPad Prism 6 (2-way ANOVA with Bonferroni correction post hoc).

NK92 cells = assay: Proliferation of NK92 cells; type: cell-based
Protocol: as §5, §6, §7

MDA-MB-231 cells [6] = assay: Cytotoxicity (cell death, Draq7) in MDA-MB-231 cells; type: cell-based
Protocol: as §5, §8, §9, §10

IMR-90 cells = assay: Cytotoxicity (cell death, Draq7) in IMR-90 cells; type: cell-based
Protocol: as §5, §8, §9, §10

T1 sequence (P62937 whole entry): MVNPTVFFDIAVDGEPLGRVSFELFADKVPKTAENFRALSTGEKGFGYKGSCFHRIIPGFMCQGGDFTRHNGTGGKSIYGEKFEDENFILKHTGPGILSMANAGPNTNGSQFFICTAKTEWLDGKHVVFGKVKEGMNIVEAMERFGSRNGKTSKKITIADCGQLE
Sequence of CypD (P30405 30-207): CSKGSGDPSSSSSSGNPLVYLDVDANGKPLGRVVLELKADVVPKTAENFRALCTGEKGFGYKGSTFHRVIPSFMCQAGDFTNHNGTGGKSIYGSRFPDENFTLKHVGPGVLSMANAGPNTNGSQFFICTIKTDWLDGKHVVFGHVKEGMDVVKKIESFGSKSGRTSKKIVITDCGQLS
Sequence of CypB (P23284 34-216): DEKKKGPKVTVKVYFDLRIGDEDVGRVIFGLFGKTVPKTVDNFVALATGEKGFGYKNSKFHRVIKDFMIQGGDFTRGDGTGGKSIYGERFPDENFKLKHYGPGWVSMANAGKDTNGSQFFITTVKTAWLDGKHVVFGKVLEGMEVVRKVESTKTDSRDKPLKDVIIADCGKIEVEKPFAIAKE

Structure (SMILES) | Kd (CypA [1]) [µM] | CypA X-ray co-crystal (CypA [2]) | further results
Cl.Nc1ccc(CN(CC2CC2)C(=O)NCC(=O)N2CCCC2c2ccccc2Br)cc1 (stereo not shown) [Compound 11, 1-[(4-aminophenyl)methyl]-3-{2-[2-(2-bromophenyl)pyrrolidin-1-yl]-2-oxoethyl}-1-(cyclopropylmethyl)urea] | ~10 | Y | 
CCOC(=O)CCn1cc(CN(Cc2ccc(N)cc2)C(=O)NCC(=O)N2CCCC2c2ccccc2Br)nn1.Cl (stereo not shown) [Compound 6, Ethyl 3-[4-({[(4-aminophenyl)methyl]({2-[2-(2-bromophenyl)pyrrolidin-1-yl]-2-oxoethyl}carbamoyl)amino}methyl)-1H-1,2,3-triazol-1-yl]propanoatehydrochloride] | 0.3 ± 0.08 | N | 
CCOC(=O)CNC(=O)N(CC)Cc1ccc2c(c1)[C@H]1CC(N2)[C@H](O)CO1 (stereo in doubt) [Compound 23, Ethyl 2-{[ethyl({[(1R,9S,10S)-10-hydroxy-12-oxa-8-azatricyclo[7.3.1.0^2,7]trideca-2,4,6-trien-4-yl]methyl})carbamoyl]amino}acetate hydrochloride] | 700 ± 235 | N | 
CCOC(=O)[C@H](CCSC)NC(=O)N(CC)Cc1ccc(N)cc1 [Compound 15, Ethyl (2S)-2-({[(4-aminophenyl)methyl](ethyl)carbamoyl}amino)-4-(methylsulfanyl)butanoate hydrochloride] | 35 ± 5 | Y | 
CCOC(=O)CNC(=O)N(CC)Cc1ccc(N)cc1.Cl [Compound 12, Ethyl 2-({[(4-aminophenyl)methyl](ethyl)carbamoyl}amino)acetate hydrochloride] | 200 ± 5 | Y | binding mode in co-crystal structure of CypA (CypA [2]): type-I binding mode
CCN(Cc1ccc(N)cc1)C(=O)NCC(=O)N1CCCC1c1ccccc1 (stereo not shown) [Compound 9, 1-[(4-aminophenyl)methyl]-3-{2-[2-(phenyl)pyrrolidin-1-yl]-2-oxoethyl}-1-ethylurea] | 35 ± 5 | Y | 
CCOC(=O)CNC(=O)N(Cc1ccc(N)cc1)Cc1nnn(C)n1.Cl [Compound 19, Ethyl 2-({[(4-aminophenyl)methyl][(2-methyl-2H-1,2,3,4-tetrazol-5-yl)methyl]carbamoyl}amino)acetate hydrochloride] | 184 ± 13 | Y | binding mode in co-crystal structure of CypA (CypA [2]): type-II binding mode
C#CCN(Cc1ccc(N)cc1)C(=O)NCC(=O)OCC [Compound 22, Ethyl 2-({[(4-aminophenyl)methyl](prop-2-yn-1-yl)carbamoyl}amino)acetate] | > 1000 | Y | 
Cl.Cn1cc(CN(Cc2ccc(N)cc2)C(=O)NCC(=O)N2CCCC2c2ccccc2Cl)nn1 (stereo not shown) [Compound 8, 1-[(4-aminophenyl)methyl]-3-{2-[2-(2-chlorophenyl)pyrrolidin-1-yl]-2-oxoethyl}-1-[(1-methyl-1H-1,2,3-triazol-4-yl)methyl]urea hydrochloride] | 1.1 ± 0.4 | N | 
CCOC(=O)CNC(=O)N(CC#N)Cc1ccc(N)cc1.Cl [Compound 13, Ethyl 2-({[(4-aminophenyl)methyl](cyanomethyl)carbamoyl}amino)acetate hydrochloride] | 990 ± 20 | Y | 
CCOC(=O)CNC(=O)N(Cc1ccc(N)cc1)Cc1nnn[nH]1.Cl [Compound 14, Ethyl 2-({[(4-aminophenyl)methyl][(1H-1,2,3,4-tetrazol-5-yl)methyl]carbamoyl}amino)acetate hydrochloride] | 139 ± 4 | N | 
CCOC(=O)Cn1cc(CN(Cc2ccc(N)cc2)C(=O)NCC(=O)N2CCCC2c2ccccc2Br)nn1.Cl (stereo not shown) [Compound 5, Ethyl 2-[4-({[(4-aminophenyl)methyl]({2-[2-(2-bromophenyl)pyrrolidin-1-yl]-2-oxoethyl}carbamoyl)amino}methyl)-1H-1,2,3-triazol-1-yl]acetate hydrochloride] | ~3 | N | Kd (CypB): 1.9 ± 0.9 µM; Kd (CypD): 1 ± 0.4 µM; Kd (CypA [3]): 4.3 ± 1 µM
CCCN(Cc1ccc(N)cc1)C(=O)NCC(=O)OCC [Compound 16, Ethyl 2-({[(4-aminophenyl)methyl](propyl)carbamoyl}amino)acetate] | 266 ± 3 | Y | 
C#CCN(Cc1ccc(N)cc1)C(=O)NCC(=O)N1CCCC1c1ccccc1Br.Cl (stereo not shown) [Compound 1, 1-[(4-aminophenyl)methyl]-3-{2-[2-(2-bromophenyl)pyrrolidin-1-yl]-2-oxoethyl}-1-(prop-2-yn-1-yl)urea hydrochloride] | 2 ± 1 | Y | Kd (CypB): 1.4 ± 0.4 µM; Apoptotic fraction of the MDA-MB-231 population in the presence of NK92 cells after 72 h @ 10 μM [4]: 0.64 ± 0.03; Fold increase MDA-MB-231 cells in presence of NK92 cells after 72 h @ 10 μM [4]: 2.0 ± 0.3; Kd (CypD): 0.2 ± 0.1 µM; GI50 (MDA-MB-231 cells [5]; Homo sapiens): 5.1 ± 0.9 µM; Kd (CypA [3]): 3.2 ± 1.3 µM; Fold increase in NK92 cells after 72 h @ 10 μM (NK92 cells): 4.3 ± 0.7; Toxicity MDA-MB-231 @10 μM (MDA-MB-231 cells [6]): N; Toxicity IMR-90 @10 μM (IMR-90 cells): N
C/C=C/CC(C)C(O)C1C(=O)NC(CC)C(=O)N(C)CC(=O)N(C)C(CC(C)C)C(=O)NC(C(C)C)C(=O)N(C)C(CC(C)C)C(=O)NC(C)C(=O)NC(C)C(=O)N(C)C(CC(C)C)C(=O)N(C)C(CC(C)C)C(=O)N(C)C(C(C)C)C(=O)N1C (stereo not shown) [CsA, Cyclosporin A, reference compound] |  |  | Apoptotic fraction of the MDA-MB-231 population in the presence of NK92 cells after 72 h @ 10 μM [4]: 0.38 ± 0.01; GI50 (MDA-MB-231 cells [5]): 6.2 ± 0.8 µM
CCOC(=O)CNC(=O)N(Cc1ccc(N)cc1)Cc1cn(C)nn1.Cl [Compound 18, Ethyl 2-({[(4-aminophenyl)methyl][(1-methyl-1H-1,2,3-triazol-4-yl)methyl]carbamoyl}amino)acetate hydrochloride] | 135 ± 6 | Y | 
CCN(Cc1ccc(N)cc1)C(=O)NCC(=O)N1CCCC1c1ccccc1Br.Cl (stereo not shown) [Compound 10, 1-[(4-aminophenyl)methyl]-3-{2-[2-(2-bromophenyl)pyrrolidin-1-yl]-2-oxoethyl}-1-ethylurea hydrochloride] | ~25 | N | 
CCOC(=O)CNC(=O)N(Cc1ccc(N)cc1)CC1CC1.Cl [Compound 17, Ethyl 2-({[(4-aminophenyl)methyl](cyclopropylmethyl)carbamoyl}amino)acetate hydrochloride] |  | Y | 
